Reference: patent publication US20250243203A1, “NICOTINAMIDE- AND BENZAMIDE-BASED COMPOUNDS, CONJUGATES, AND COMPOSITIONS AS INHIBITORS OF TRANSLATIONAL- AND TRANSCRIPTIONAL-RELATED KINASES” (PURDUE RESEARCH FOUNDATION, priority 2022, published 2025)
Where two headings read alike, the source gives them in different places.

Tests used:
CT-26 C2 tumor cells = test: CT-26 in vivo tumor reduction; design: species or system BALB/c female mouse; conditions: CT-26, day 17 from start of dosing, oral QD
Procedure: Each BALB/c female mouse was inoculated subcutaneously at the right flank with CT-26 C2 tumor cells (0.3×10^6/mouse) in 0.1 mL PBS for tumor development. Treatments for the efficacy study were started on day 10 after tumor inoculation when the average tumor size reached approximately 71 mm^3. Each group consisted of 6 tumor-bearing mice. Vehicle control was 25 mM citrate buffer (pH 2.5). HSND80 was dosed orally QD at 15 mg/Kg for 4 days and 10 mg/Kg afterwards. HSND100 was dosed at 15 mg/Kg. Mice were dosed 5 days on and 2 days off (drug holiday). Tumors were measured every other day (L, W, H) to give tumor volume in mm^3.

[1] = system: MDA-MB-231 (breast cancer); test: Growth inhibition of MDA-MB-231 (NCI-60 human tumor cell line screen); type: cell-based; conditions: NCI-60 screening
p70S6K = p70S6K (Homo sapiens, UniProt P23443); test: p70S6K inhibition, in vitro studies at Reaction Biology Corporation; type: biochemical; conditions: 25 nM compound, [ATP]=10 uM
Procedure: The nature of the substituent on the imidazo[1,2-b]pyridazine moiety at position-6 was evaluated in in vitro studies performed at Reaction Biology Corporation (Malvern, PA). The results indicated the specific substituent dramatically affected the inhibition of p70S6K.

MNK2 = MNK2 (Homo sapiens, UniProt Q9HBH9); test: MNK2 inhibition, in vitro studies at Reaction Biology Corporation; type: biochemical; conditions: 50 nM compound, 10 uM ATP
[2] = target: T1, AXL receptor tyrosine kinase (AXL) (Homo sapiens, UniProt P30530); test: KINOMEscan competition binding assay (Eurofins DiscoverX), AXL
T1 construct: purchased Eurofins DiscoverX (KINOMEscan service)
T1 sequence (P30530 26-894): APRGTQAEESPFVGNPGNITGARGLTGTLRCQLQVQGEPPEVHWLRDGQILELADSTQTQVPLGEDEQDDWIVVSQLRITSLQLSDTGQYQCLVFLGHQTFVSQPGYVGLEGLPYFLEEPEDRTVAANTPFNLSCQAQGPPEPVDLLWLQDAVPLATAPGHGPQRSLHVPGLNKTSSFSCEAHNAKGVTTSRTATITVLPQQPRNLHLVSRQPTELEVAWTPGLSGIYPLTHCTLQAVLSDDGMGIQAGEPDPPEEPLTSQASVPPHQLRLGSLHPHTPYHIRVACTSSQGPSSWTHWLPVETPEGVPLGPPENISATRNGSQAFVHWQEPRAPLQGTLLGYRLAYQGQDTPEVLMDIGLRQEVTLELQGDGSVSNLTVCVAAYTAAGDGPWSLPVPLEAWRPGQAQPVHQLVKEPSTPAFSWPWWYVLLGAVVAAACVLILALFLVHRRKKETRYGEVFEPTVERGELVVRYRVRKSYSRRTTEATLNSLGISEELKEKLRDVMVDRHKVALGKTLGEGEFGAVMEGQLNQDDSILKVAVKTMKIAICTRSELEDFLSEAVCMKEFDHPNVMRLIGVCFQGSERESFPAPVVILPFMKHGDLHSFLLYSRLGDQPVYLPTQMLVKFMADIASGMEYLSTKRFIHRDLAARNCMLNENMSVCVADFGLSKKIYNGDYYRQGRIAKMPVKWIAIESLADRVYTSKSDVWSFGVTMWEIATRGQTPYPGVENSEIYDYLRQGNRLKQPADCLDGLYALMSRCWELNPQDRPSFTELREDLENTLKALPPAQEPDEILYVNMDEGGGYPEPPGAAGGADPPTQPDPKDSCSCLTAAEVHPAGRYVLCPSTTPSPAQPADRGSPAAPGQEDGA
Procedure: The affinity of several compounds hereof having a substituent on the imidazo[1,2-b]pyridazine moiety at position-6, wherein the substituent comprised one or more ring moieties was evaluated with respect to two TAM kinases: AXL and MERTK. […] The assay uses DNA-tagged kinase, an immobilized ligand, and the test compound. Quantitative polymerase chain reaction (PCR) of the DNT tag was then used to measure the ability of the tested compound to displace the immobilized ligand.

[3] = target: T2, MER Proto-Oncogene tyrosine kinase (MERTK) (Homo sapiens, UniProt Q12866); test: KINOMEscan competition binding assay (Eurofins DiscoverX), MERTK
T2 construct: purchased Eurofins DiscoverX (KINOMEscan service)
T2 sequence (Q12866 21-999): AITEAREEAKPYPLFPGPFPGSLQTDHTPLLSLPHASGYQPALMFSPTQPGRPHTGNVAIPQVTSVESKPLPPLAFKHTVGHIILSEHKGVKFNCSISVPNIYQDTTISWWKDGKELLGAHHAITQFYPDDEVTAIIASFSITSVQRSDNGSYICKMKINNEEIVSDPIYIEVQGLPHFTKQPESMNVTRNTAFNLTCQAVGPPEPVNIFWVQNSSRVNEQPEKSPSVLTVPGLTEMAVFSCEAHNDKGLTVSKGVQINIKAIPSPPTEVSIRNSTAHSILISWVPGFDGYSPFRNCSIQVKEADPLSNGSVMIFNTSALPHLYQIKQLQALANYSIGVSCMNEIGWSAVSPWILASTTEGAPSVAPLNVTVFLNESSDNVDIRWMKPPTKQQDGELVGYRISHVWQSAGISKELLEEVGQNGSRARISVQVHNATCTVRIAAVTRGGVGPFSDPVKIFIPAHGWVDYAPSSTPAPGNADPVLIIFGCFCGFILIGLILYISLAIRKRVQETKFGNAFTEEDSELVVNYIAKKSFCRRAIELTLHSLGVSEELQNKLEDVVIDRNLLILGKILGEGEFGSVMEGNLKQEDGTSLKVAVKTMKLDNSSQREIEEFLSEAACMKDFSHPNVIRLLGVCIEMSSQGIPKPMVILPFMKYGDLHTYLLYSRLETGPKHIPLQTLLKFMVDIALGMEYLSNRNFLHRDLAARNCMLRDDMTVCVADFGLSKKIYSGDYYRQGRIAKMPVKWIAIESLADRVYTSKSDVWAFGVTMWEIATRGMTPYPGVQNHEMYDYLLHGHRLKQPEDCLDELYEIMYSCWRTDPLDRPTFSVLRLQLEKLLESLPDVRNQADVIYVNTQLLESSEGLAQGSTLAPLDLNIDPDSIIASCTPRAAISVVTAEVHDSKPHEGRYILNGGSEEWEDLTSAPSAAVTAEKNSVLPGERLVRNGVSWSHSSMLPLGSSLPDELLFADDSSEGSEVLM
Procedure: The affinity of several compounds hereof having a substituent on the imidazo[1,2-b]pyridazine moiety at position-6, wherein the substituent comprised one or more ring moieties was evaluated with respect to two TAM kinases: AXL and MERTK. Perhaps more specifically, the equilibrium dissociation constant between each of compounds HSND141, compound HSND149, HSND150, HSND151, and HSND80 and AXL and MERTK was evaluated at Eurofins DiscoverX using KINOMEscan™, which is a competition binding assay that quantitively measured the ability of each tested compound to displace an immobilized, active-site directed ligand. The assay uses DNA-tagged kinase, an immobilized ligand, and the test compound. Quantitative polymerase chain reaction (PCR) of the DNT tag was then used to measure the ability of the tested compound to displace the immobilized ligand.

[4] = patients on ponatinib; cited from earlier work
[5] = Table 1, DiscoverX Eurofins, read-out: Kd AXL
[6] = Table 1, DiscoverX Eurofins, read-out: Kd MERTK

Chain of p70S6K (P23443 whole entry): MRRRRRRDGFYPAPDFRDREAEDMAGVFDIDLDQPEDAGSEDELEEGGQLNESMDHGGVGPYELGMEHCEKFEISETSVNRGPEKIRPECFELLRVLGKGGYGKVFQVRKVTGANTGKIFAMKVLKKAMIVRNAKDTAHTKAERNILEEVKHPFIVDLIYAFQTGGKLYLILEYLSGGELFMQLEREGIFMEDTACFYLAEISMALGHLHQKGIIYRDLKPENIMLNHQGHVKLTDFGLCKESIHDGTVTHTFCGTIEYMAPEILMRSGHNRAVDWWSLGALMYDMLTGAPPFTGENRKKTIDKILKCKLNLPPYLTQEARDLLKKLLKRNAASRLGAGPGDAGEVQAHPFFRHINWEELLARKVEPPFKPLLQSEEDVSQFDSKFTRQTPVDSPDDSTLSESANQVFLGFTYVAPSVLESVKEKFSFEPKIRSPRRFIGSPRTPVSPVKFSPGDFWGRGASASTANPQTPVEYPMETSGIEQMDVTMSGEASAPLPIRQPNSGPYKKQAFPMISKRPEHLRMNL
Chain of MNK2 (Q9HBH9 whole entry): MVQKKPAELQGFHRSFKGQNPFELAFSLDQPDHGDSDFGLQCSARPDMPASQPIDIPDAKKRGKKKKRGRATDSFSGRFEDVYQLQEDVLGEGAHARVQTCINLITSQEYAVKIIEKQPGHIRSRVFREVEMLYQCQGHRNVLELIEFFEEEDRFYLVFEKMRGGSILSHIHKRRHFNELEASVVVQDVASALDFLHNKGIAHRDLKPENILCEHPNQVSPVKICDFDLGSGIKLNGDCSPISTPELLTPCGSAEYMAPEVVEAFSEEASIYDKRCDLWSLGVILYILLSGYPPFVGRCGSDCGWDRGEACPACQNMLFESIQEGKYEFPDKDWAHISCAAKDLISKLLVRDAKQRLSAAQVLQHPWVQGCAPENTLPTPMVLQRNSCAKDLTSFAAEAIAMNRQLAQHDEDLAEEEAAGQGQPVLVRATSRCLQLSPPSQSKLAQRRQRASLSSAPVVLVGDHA

CC1CN(c2ccc3ncc(C#Cc4cncc(C(=O)Nc5ccc(CN6CCN(C)CC6)c(C(F)(F)F)c5)c4)n3n2)C[C@@H](C)O1 (stereo in doubt) [HSND100, 5-((6-((2R,6R)-2,6-Dimethylmorpholino)imidazo[1,2-b]pyridazin-3-yl)ethynyl)-N-(4-((4-methylpiperazin-1-yl)methyl)-3-(trifluoromethyl)phenyl)nicotinamide]
tumor reduction compared to vehicle control (CT-26 C2 tumor cells): 36%

CN1CCN(Cc2ccc(NC(=O)c3cncc(C#Cc4cnc5ccc(N)nn45)c3)cc2C(F)(F)F)CC1 [HSND37, 5-((6-Aminoimidazo[1,2-b]pyridazin-3-yl)ethynyl)-N-(4-((4-methylpiperazin-1-yl)methyl)-3-(trifluoromethyl)phenyl)nicotinamide]
GI50 [1]: 413 nM

CN(C)CCNc1ccc2ncc(C#Cc3cncc(C(=O)Nc4ccc(CN5CCN(C)CC5)c(C(F)(F)F)c4)c3)n2n1 [HSND39, 5-((6-((2-(Dimethylamino)ethyl)amino)imidazo[1,2-b]pyridazin-3-yl)ethynyl)-N-(4-((4-methylpiperazin-1-yl)methyl)-3-(trifluoromethyl)phenyl)nicotinamide]
GI50 [1]: 571 nM

CN(C)CCN(C)c1ccc2ncc(C#Cc3cncc(C(=O)Nc4ccc(CN5CCN(C)CC5)c(C(F)(F)F)c4)c3)n2n1 [HSND40, 5-((6-((2-(Dimethylamino)ethyl)(methyl)amino)imidazo[1,2-b]pyridazin-3-yl)ethynyl)-N-(4-((4-methylpiperazin-1-yl)methyl)-3-(trifluoromethyl)phenyl)nicotinamide]
GI50 [1]: 889 nM

CN1CCN(Cc2ccc(NC(=O)c3cncc(C#Cc4cnc5ccc(N6CCOCC6)nn45)c3)cc2C(F)(F)F)CC1 [HSND41, N-(4-((4-Methylpiperazin-1-yl)methyl)-3-(trifluoromethyl)phenyl)-5-((6-morpholinoimidazo[1,2-b]pyridazin-3-yl)ethynyl)nicotinamide]
GI50 [1]: 35 nM

CN1CCN(Cc2ccc(NC(=O)c3cncc(C#Cc4cnc5ccc(N6CCN(C)CC6)nn45)c3)cc2C(F)(F)F)CC1 [HSND77, 5-((6-(4-Methylpiperazin-1-yl)imidazo[1,2-b]pyridazin-3-yl)ethynyl)-N-(4-((4-methylpiperazin-1-yl)methyl)-3-(trifluoromethyl)phenyl)nicotinamide]
inhibition of p70S6K (p70S6K): 95%
inhibition at 0.05 µM (MNK2): 92%

CN1CCN(Cc2ccc(NC(=O)c3cncc(C#Cc4cnc5ccc(N6CCSCC6)nn45)c3)cc2C(F)(F)F)CC1 [HSND79, N-(4-((4-Methylpiperazin-1-yl)methyl)-3-(trifluoromethyl)phenyl)-5-((6-thiomorpholinoimidazo[1,2-b]pyridazin-3-yl)ethynyl)nicotinamide]
inhibition of p70S6K (p70S6K): 95%
inhibition at 0.05 µM (MNK2): 94%

CN1CCN(Cc2ccc(NC(=O)c3cncc(C#Cc4cnc5ccc(N6C7CCC6COC7)nn45)c3)cc2C(F)(F)F)CC1 [HSND141, 5-((6-(3-Oxa-8-azabicyclo[3.2.1]octan-8-yl)imidazo[1,2-b]pyridazin-3-yl)ethynyl)-N-(4-((4-methylpiperazin-1-yl)methyl)-3-(trifluoromethyl)phenyl)nicotinamide]
Kd [2]: 1.2 nM
Kd [3]: 0.22 nM

CN1CCN(Cc2ccc(NC(=O)c3cncc(C#Cc4cnc5ccc(N6CC7(COC7)C6)nn45)c3)cc2C(F)(F)F)CC1 [HSND149, 5-((6-(2-Oxa-6-azaspiro[3.3]heptan-6-yl)imidazo[1,2-b]pyridazin-3-yl)ethynyl)-N-(4-((4-methylpiperazin-1-yl)methyl)-3-(trifluoromethyl)phenyl)nicotinamide]
Kd [2, 5]: 3.7 nM
Kd [3, 6]: 0.2 nM

CN1CCN(Cc2ccc(NC(=O)c3cncc(C#Cc4cnc5ccc(N6C[C@H]7C[C@@H]6CO7)nn45)c3)cc2C(F)(F)F)CC1 [HSND150, 5-((6-((1R,4R)-2-Oxa-5-azabicyclo[2.2.1]heptan-5-yl)imidazo[1,2-b]pyridazin-3-yl)ethynyl)-N-(4-((4-methylpiperazin-1-yl)methyl)-3-(trifluoromethyl)phenyl)nicotinamide]
Kd [2, 5]: 2.8 nM
Kd [3, 6]: < 0.17 nM

CN1CCN(Cc2ccc(NC(=O)c3cncc(C#Cc4cnc5ccc(N6C[C@@H]7C[C@H]6CO7)nn45)c3)cc2C(F)(F)F)CC1 [HSND151, 5-((6-((1S,4S)-2-Oxa-5-azabicyclo[2.2.1]heptan-5-yl)imidazo[1,2-b]pyridazin-3-yl)ethynyl)-N-(4-((4-methylpiperazin-1-yl)methyl)-3-(trifluoromethyl)phenyl)nicotinamide]
Kd [2, 5]: 3.3 nM
Kd [3, 6]: < 0.17 nM

Cc1ccc(C(=O)Nc2ccc(CN3CCN(C)CC3)c(C(F)(F)F)c2)cc1C#Cc1cnc2cccnn12 [ponatinib, Ponatinib, reference compound]
inhibition of p70S6K (p70S6K): 38%
patients developing some form of thrombosis [4]: about 40%
